Results from PubChem BioAssay AID977605 (Broad Institute, 2014).
Calls of active or inactive are those of the source.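 Rule for the calls: active = fitted curve reaches 40% activation below the top valid tested dose, in every test run; inconclusive = test runs disagree on the call; inactive = the rest, including effects opposite to the expected direction.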

System: not listed separately
Assay: endothelial E-selectin upregulation by compounds – imaging, HUVEC, cherry-picked samples, dose response (AID 977605);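 note: signal is the share of imaged cells scored positive for E-selectin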
Conditions: HUVEC E-selectin immunostaining, at 19.5 µM (top of the series)
For `CN1CCN(c2cn[nH]c(=O)c2Cl)CC1`, the activation was -0.235% (inactive).

Same assay, conditions: HUVEC E-selectin immunostaining, at 19.5 µM (top of the series), percent of TNF-alpha response over vehicle
For `COc1ccc(NS(=O)(=O)c2cccc(Cl)c2Cl)cc1S(=O)(=O)N1CCCCC1`, the activation was -0.061% (inactive). With `C[C@H]1CN([C@@H](C)CO)C(=O)Cc2cc(NC(=O)C3CCCCC3)ccc2O[C@H]1CN(C)C(=O)NC1CCCCC1` the activation was -0.185% (inactive). In the case of `COc1ccc(S(=O)(=O)Nc2ccc3c(c2)C(=O)N([C@H](C)CO)C[C@@H](C)[C@@H](CN(C)C(=O)Nc2cccc4ccccc24)O3)cc1`, the activation is reported as 1.7% (inactive). For `CO[C@H]1CN(C)C(=O)c2cc(NC(=O)Nc3ccc(Cl)cc3)ccc2OC[C@H](C)NC[C@H]1C`, the activation was 0.158% (inactive). With `COc1ccc(-c2nnc3n2CCCCC3)cc1` the activation was 0.032% (inactive). With `CCOc1cc(N2CCOCC2)c(OCC)cc1NC(=O)c1ccc(S(=O)(=O)N2CC(C)OC(C)C2)cc1` (centres undefined) the activation was -0.215% (inactive). For `CCc1nc(=O)c(-c2ccccc2)c(C)n1-c1ccccc1`, the activation was -0.02% (inactive). In the case of `C[C@@H]1CN([C@@H](C)CO)C(=O)Cc2cc(NC(=O)Nc3ccc(F)cc3)ccc2O[C@@H]1CN(C)Cc1ccncc1`, the activation is reported as 10.4% (inactive). For `C[C@H](CO)N1C[C@H](C)[C@@H](CN(C)S(=O)(=O)c2cn(C)cn2)Oc2ccc(NC(=O)Nc3ccc(F)cc3)cc2CC1=O`, the activation was 0.1% (inactive). In the case of `C[C@H](CO)N1C[C@H](C)[C@H](CN(C)Cc2ccc(Cl)c(Cl)c2)Oc2ccc(NS(=O)(=O)c3cccs3)cc2C1=O`, the activation is reported as 0.328% (inactive). For `CCCC#Cc1ccc2c(c1)O[C@@H](CN(C)C(=O)c1ccncc1)[C@H](C)CN([C@@H](C)CO)S2(=O)=O`, the activation was -0.24% (inactive). With `C[C@@H]1CN([C@H](C)CO)C(=O)c2cc(NS(=O)(=O)c3ccccc3)ccc2O[C@@H]1CN(C)C(=O)NC1CCCCC1` the activation was -0.139% (inactive). For `CO[C@@H]1CN(C)C(=O)c2ccc(NC(=O)c3nc4ccccc4s3)cc2OC[C@@H](C)N(Cc2cncnc2)C[C@@H]1C`, the activation was -0.082% (inactive). In the case of `NS(=O)(=O)c1ccc(NC(=O)CCC(=O)N2CCOCC2)cc1`, the activation is reported as 0.021% (inactive). With `COc1ccc(NC(=O)N(C)C[C@@H]2Oc3ccc(NC(=O)c4ccncc4)cc3CC(=O)N([C@H](C)CO)C[C@@H]2C)cc1` the activation was -0.135% (inactive). For `O=C1CC(N2CCSCC2)C(=O)N1c1cccc(Br)c1` (centres undefined), the activation was -0.085% (inactive). With `COc1ccc(S(=O)(=O)Nc2cccc3c2O[C@H](CN(C)C(=O)Nc2c(C)noc2C)[C@H](C)CN([C@@H](C)CO)C3=O)cc1` the activation was -0.052% (inactive). In the case of `C[C@@H]1CN([C@H](C)CO)C(=O)c2cccc(NC(=O)Nc3ccc4c(c3)OCO4)c2O[C@@H]1CN(C)C(=O)Nc1ccc(C(F)(F)F)cc1`, the activation is reported as 0.256% (inactive). With `C[C@@H]1CN([C@@H](C)CO)C(=O)c2cccc(NS(=O)(=O)c3ccc(F)cc3)c2O[C@H]1CN(C)Cc1ccc(C(=O)O)cc1` the activation was -0.15% (inactive). For `COc1ccc(S(=O)(=O)Nc2ccc3c(c2)C(=O)N([C@@H](C)CO)C[C@H](C)[C@@H](CN(C)C(=O)Nc2cccc4ccccc24)O3)cc1`, the activation was -0.208% (inactive). In the case of `CCn1c(SCC(=O)Nc2cccc(C)c2)nc2c(c1=O)SC(C)C2` (centres undefined), the activation is reported as -0.269% (inactive). In the case of `C[C@@H]1CN([C@@H](C)CO)C(=O)Cc2cc(NC(=O)c3ccncc3)ccc2O[C@@H]1CN(C)S(=O)(=O)c1cn(C)cn1`, the activation is reported as -0.153% (inactive). In the case of `COc1ccc(NS(=O)(=O)c2ccc3c(c2)CCCN3C(C)=O)cc1`, the activation is reported as -0.06% (inactive).

Same assay, conditions: HUVEC E-selectin immunostaining, at 21 µM (top of the series), percent of TNF-alpha response over vehicle
For `C[C@@H]1CN([C@H](C)CO)C(=O)c2cc(NC(=O)c3ccncc3)ccc2O[C@@H]1CN(C)C(=O)Nc1ccc2c(c1)OCO2`, the activation was 0.64% (inactive). For `C[C@H]1CN([C@@H](C)CO)C(=O)c2cc(NC(=O)Nc3ccc(C(F)(F)F)cc3)ccc2O[C@@H]1CN(C)S(=O)(=O)c1ccccc1`, the activation was 0.012% (inactive). In the case of `C[C@H]1CN([C@@H](C)CO)C(=O)Cc2cc(NS(C)(=O)=O)ccc2O[C@@H]1CN(C)Cc1ccncc1`, the activation is reported as 0.217% (inactive).

System: HUVEC E-selectin immunostaining, imaging, 16 h
Assay: as above
Conditions: not given
For `Cc1ccc(S(=O)(=O)NCc2ccc3c(c2)cc(C)n3C)cc1`, the AC40 was 13.6 µM. `CC(C)(C)[S@](=O)N1Cc2cc(C(=O)N[C@H]3CCN(Cc4ccccc4)C3)nc(-c3cccc(-c4ccncc4)c3)c2[C@@H]1CCO` showed an AC40 of 13.2 µM. `COc1ccc(S(=O)(=O)N(C)C[C@@H]2OCCCC[C@H](C)Oc3ccc(NC(=O)Nc4cccc5ccccc45)cc3C(=O)N([C@H](C)CO)C[C@H]2C)cc1` gave an AC40 of 17.7 µM. `O=C(C[C@@H]1CC[C@H]2[C@@H](COC[C@H](O)CN2C(=O)c2ccc(F)cc2)O1)Nc1ccc(-c2ccccc2)cc1` showed an AC40 of 8 µM. In the case of `COc1cccc(CNC(=O)c2cc3c(c(-c4cccc(-c5ccc(C#N)cc5)c4)n2)[C@H](CCO)N([S@@](=O)C(C)(C)C)C3)c1`, the AC40 is reported as 14.7 µM. `Cc1cc(C)c(S(=O)(=O)NCCn2c(C)cc3ccccc32)c(C)c1` showed an AC40 of 14.3 µM. For `Cc1cc2c(SCc3ccccc3Cl)nc(N)nc2nc1C`, the AC40 was 11.4 µM. Work on `Cc1cc2cc(CNC(=O)Nc3cccc(Cl)c3)ccc2n1C` yielded an AC40 of 10.8 µM. For `Cc1cc2ccccc2n1CCNC(=O)COc1ccc2ccccc2c1`, the AC40 was 11.3 µM. For `CO[C@@H]1CN(C)C(=O)c2ccc(NC(=O)Nc3ccc(F)cc3)cc2OC[C@@H](C)N(C(=O)c2ccc(F)cc2)C[C@H]1C`, the AC40 was 12.4 µM. For `FC(F)(F)c1ccc2c(c1)N1CCCC1CN2` (centres undefined), the AC40 was 7.71 µM. `Cc1cccc(-c2cc(N3CCCN(C)CC3)n3nccc3n2)c1` showed an AC40 of 5.24 µM. With `Cc1cccc(NC(=O)NCc2ccc3c(c2)cc(C)n3C)c1` the AC40 was 12 µM. `COc1ccc(NC(=O)N(C)C[C@H]2Oc3ccc(NS(=O)(=O)c4cccs4)cc3C(=O)N([C@H](C)CO)C[C@@H]2C)cc1` showed an AC40 of 17.7 µM. For `COc1ccc(CNC(=O)c2cc3c(c(-c4cccc(-c5cccc(C#N)c5)c4)n2)[C@H](CCO)N([S@@](=O)C(C)(C)C)C3)cc1`, the AC40 was 19.4 µM. With `COc1ccc(Nc2ccccc2N)cc1` the AC40 was 5.67 µM. In the case of `Cc1cc2cc(CNC(=O)Nc3ccc(Cl)c(Cl)c3)ccc2n1C`, the AC40 is reported as 10.1 µM.
